Source: patent publication US20180360801A1, “NEUROPROTECTIVE COMPOSITIONS AND THEIR USE” (priority 2017, published 2018)

Experiment: Blood glucose by glucometer after 4 weeks of treatment
Assay type: in vivo
Settings: rats, streptozotocin 55 mg/kg ip, n=12, p<0.05
Experimental: In this study, we used streptozotocin (55 mg/kg) to induce hyperglycemia. We measured the levels of glucose using standardized glucometer after 4 weeks of treatment. Based on the literature, the current animal model represents severe hyperglycemia.

CN(N=O)C(=O)N[C@H]1C(O)O[C@H](CO)[C@@H](O)[C@@H]1O (mixture of isomers) [Streptozotocin, streptozotocin]
increase of levels of glucose as compared to the controls: 445.5%
